# Columns and labels:
# [1] = Association of Vitamin D therapy, serum PTH and CaxP product quintiles with hospitalization outcomes in hemodialysis patients (cohort, negative binomial regression); format: in vivo, human; settings: for association between quintiles of PTH, CaxP and hospital outcomes (morbidity): interaction of laboratory quintiles and Vitamin D therapy
# Description: Elevated PTH and CaxP levels have been considered risk factors for increased mortality and morbidity (M&M) in HD patients. […] To date, the relationship between M&M, PTH, CaxP product and the impact of Vitamin D therapy, however, has not been addressed. Thus, by quintiles, an analysis was made of the baseline distribution of serum iPTH, and CaxP product levels in HD patients who received paricalcitol (P), calcitriol (C) or no Vitamin D (NoD) therapy in regard to their relationship with hospitalization outcomes as defined by hospitalizations per year (HOSP) and hospital days per year (DAYS). The cohort consisted of 11,340 adult patients new to HD between January 1999 and November 2001; there were 2,316 patients treated with P; 2,299 patients treated with C and 6,725 patients NoD.
# [2] = Vitamin D therapy and K/DOQI guidelines on hospitalization outcomes in hemodialysis patients (cohort, negative binomial regression); format: in vivo, human; settings: for annual hospitalizations (HOSP) and hospital days (DAYS), NoD group compared with treated group: NoD (N=3007) vs P (N=1318) or C (N=1432), therapy at least 180 days
# Description: An examination was made of the relationship between Vitamin D therapy and K/DOQI guidelines on hospitalization outcomes, as a surrogate for morbidity, in hemodialysis (HD) patients. The cohort consisted of U.S. patients who were new to HD during the period from January 1999 to December 2001 and who received paricalcitol (P), calcitriol (C) or no vitamin D (NoD) therapy for at least 180 days. To allow for patients to be stabilized after initiation to Vitamin D or NoD therapy, baseline laboratory values were defined over the initial 90-180 days of the observation period; mean values over this baseline period were assessed relative to K/DOQI guidelines. Patients with baseline laboratory measurements within K/DOQI guidelines served as reference groups. An interaction term was created to examine the relationship between Vitamin D therapy and the K/DOQI baseline assessment. Outcomes were defined by annual hospitalizations (HOSP) and hospital days (DAYS). Analysis was performed using negative binomial regression modeling.
# [3] = recent data; cited from earlier work
Compound,"DAYS in the 2nd quintile of CaxP compared to the reference group (3rd quintile) ([1]; human, in vivo)","association between quintiles of PTH, CaxP and hospital outcomes (morbidity) [1]","annual hospitalizations (HOSP) and hospital days (DAYS), NoD group compared with treated group ([2]; p<0.05)","increase in DAYS for patients outside of K/DOQI guidelines for Phos ([2]; interaction assessment, reference: patients within K/DOQI guidelines, p<0.05) [%]","fewer DAYS (hospital days per year) compared to C group ([1]; 2,316 patients P vs 2,299 C, p=0.0036) [%]","fewer DAYS (hospital days per year) compared to NoD group ([1]; 2,316 patients P vs 6,725 NoD, p<0.0001) [%]",survival in HD patients [3],difference in outcomes for patients within K/DOQI guidelines compared to those outside of guidelines ([2]; HOSP and DAYS),"hospitalization outcomes, ranking among groups ([2]; P vs C vs NoD)"
"C=C1/C(=C\C=C2/CCC[C@]3(C)[C@@H]([C@H](C)CCCC(C)(C)O)CC[C@@H]23)C[C@@H](O)C[C@@H]1O [calcitriol, 1α,25-dihydroxy-vitamin D3]",significantly fewer DAYS,no significant associations,significantly more HOSP and DAYS,40,,,,,
"C[C@H](/C=C/[C@H](C)C(C)(C)O)[C@H]1CC[C@H]2/C(=C/C=C3C[C@@H](O)C[C@H](O)C3)CCC[C@]12C [paricalcitol, 19-nor-1α,3β,25-trihydroxy-9,10-secoergosta-5(Z); 7(E),22(E)-triene]",,not associated with morbidity,significantly more HOSP and DAYS,,72,90,associated with survival benefit,no significant difference,fewest hospitalization outcomes
